From patent US20250197394A1, “ANTIBACTERIALS BASED ON MONOCYCLIC FRAGMENTS COUPLED TO AMINOPIPERIDINE NAPHTHYRIDINE SCAFFOLD” (UNIVERZA V LJUBLJANI, priority 2019, published 2025)
≈ marks a conversion by molar mass, not a printed value.

Tests used:
[1] = target: Staphylococcus aureus DNA gyrase (Staphylococcus aureus, UniProt P0A0K8+P20831); experiment: biochemical
[2] = test system: HepG2 (ATCC) cell line; experiment: Cytotoxicity, metabolic cell activity (CellTiter 96 AQueous One), HepG2; assay type: cell-based; settings: two independent experiments; for mean percentage of metabolic activity of treated cells, HepG2 1 μM: HepG2, compound 1 μM; for mean percentage of metabolic activity of treated cells, HepG2 50 μM: HepG2, compound 50 μM
Method: (§1) Cytotoxicity was assessed in assay measuring metabolic cell activity performed on HepG2 (ATCC) and HUVEC (ATCC) cell lines according to the protocol of CellTiter 96® AQueous One Solution Cell Proliferation Assay 2018, Promega, USA, 2001. The method involved absorbance measurements after the treatment of cells with compounds at concentrations 1 μM and 50 μM.
(§2) The results are given as the mean percentage of metabolic activity of treated cells from two independent experiments and are represented in Table 3.

[3] = test system: E. faecalis DRK 057; experiment: MIC broth microdilution, E. faecalis; assay type: cell-based; settings: Enterococcus faecalis, DRK057, 20 hours of incubation
Method: (§3) Minimal inhibitory concentrations were determined by the broth microdilution method in 96-wells plate format following the Clinical and Laboratory Standards Institute (CLSI) guidelines given in “Methods for Dilution Antimicrobial Susceptibility Tests for Bacteria That Grow Aerobically, Approved Standard, 10th Edition, CLSI document M07-A10, Wayne, PA: Clinical and Laboratory Standards Institute, USA, 2015” and European Committee on Antimicrobial Susceptibility Testing (EUCAST) recommendations given in “The European Committee on Antimicrobial Susceptibility Testing, Breakpoint tables for interpretation of MICs and zone diameters, Version 5.0, 2015”. All exemplified compounds were tested on several Gram-positive (S. aureus, methicillin-resistant Staphylococcus aureus (MRSA), methicillin-resistant
(§4) Staphylococcus schleiferi subspecies coagulans, methicillin-resistant Staphylococcus pseudintermedius
(§5) (S-48, S-84, S-35, S-52, S-40 and S-51), Streptococcus agalactiae and Enterococcus faecalis) and Gram-negative bacteria (E. coli, Salmonella Alachua and Pseudomonas aeruginosa).
(§6) The MICs were visually determined as the lowest compound concentration inhibiting bacterial growth after 20 hours of incubation time. […] MIC values are represented in Table 2.

[4] = test system: HUVEC (ATCC) cell line; experiment: Cytotoxicity, metabolic cell activity (CellTiter 96 AQueous One), HUVEC; assay type: cell-based; settings: two independent experiments; for mean percentage of metabolic activity of treated cells, HUVEC 1 μM: compound 1 μM; for mean percentage of metabolic activity of treated cells, HUVEC 50 μM: compound 50 μM
Method: as §1, §2

[5] = test system: methicillin-resistant Staphylococcus pseudintermedius S-51; experiment: MIC broth microdilution, MRSP S-51; assay type: cell-based; settings: 20 hours of incubation
Method: as §3, §4, §5, §6

[6] = test system: methicillin-resistant Staphylococcus pseudintermedius S-52; experiment: MIC broth microdilution, MRSP S-52; assay type: cell-based; settings: 20 hours of incubation
Method: as §3, §4, §5, §6

[7] = test system: methicillin-resistant Staphylococcus schleiferi subspecies coagulans; experiment: MIC broth microdilution, MRSS; assay type: cell-based; settings: 20 hours of incubation
Method: as §3, §4, §5, §6

[8] = test system: C. jejuni RDK-135; experiment: MIC broth microdilution, C. jejuni; assay type: cell-based; settings: Campylobacter jejuni, RDK135, 20 hours of incubation
Method: as §3, §6

[9] = test system: methicillin-resistant Staphylococcus pseudintermedius S-40; experiment: MIC broth microdilution, MRSP S-40; assay type: cell-based; settings: 20 hours of incubation
Method: as §3, §4, §5, §6

[10] = test system: P. aeruginosa RDK 184; experiment: MIC broth microdilution, P. aeruginosa; assay type: cell-based; settings: Pseudomonas aeruginosa, RDK184, 20 hours of incubation
Method: as §3, §4, §5, §6

[11] = test system: methicillin-resistant Staphylococcus pseudintermedius S-35; experiment: MIC broth microdilution, MRSP S-35; assay type: cell-based; settings: 20 hours of incubation
Method: as §3, §4, §5, §6

[12] = test system: methicillin-resistant Staphylococcus pseudintermedius S-84; experiment: MIC broth microdilution, MRSP S-84; assay type: cell-based; settings: 20 hours of incubation
Method: as §3, §4, §5, §6

[13] = test system: methicillin-resistant Staphylococcus pseudintermedius S-48; experiment: MIC broth microdilution, MRSP S-48; assay type: cell-based; settings: 20 hours of incubation
Method: as §3, §4, §5, §6

[14] = target: T1, Escherichia coli DNA gyrase (Escherichia coli, UniProt P0AES4+P0AES6); experiment: Gyrase Supercoiling High Throughput Plate assay (E. coli); assay type: biochemical; settings: mean of two to four independent measurements
T1 construct: purchased Inspiralis (Norwich, UK)
T1 sequence (P0AES4 whole entry, one chain of several): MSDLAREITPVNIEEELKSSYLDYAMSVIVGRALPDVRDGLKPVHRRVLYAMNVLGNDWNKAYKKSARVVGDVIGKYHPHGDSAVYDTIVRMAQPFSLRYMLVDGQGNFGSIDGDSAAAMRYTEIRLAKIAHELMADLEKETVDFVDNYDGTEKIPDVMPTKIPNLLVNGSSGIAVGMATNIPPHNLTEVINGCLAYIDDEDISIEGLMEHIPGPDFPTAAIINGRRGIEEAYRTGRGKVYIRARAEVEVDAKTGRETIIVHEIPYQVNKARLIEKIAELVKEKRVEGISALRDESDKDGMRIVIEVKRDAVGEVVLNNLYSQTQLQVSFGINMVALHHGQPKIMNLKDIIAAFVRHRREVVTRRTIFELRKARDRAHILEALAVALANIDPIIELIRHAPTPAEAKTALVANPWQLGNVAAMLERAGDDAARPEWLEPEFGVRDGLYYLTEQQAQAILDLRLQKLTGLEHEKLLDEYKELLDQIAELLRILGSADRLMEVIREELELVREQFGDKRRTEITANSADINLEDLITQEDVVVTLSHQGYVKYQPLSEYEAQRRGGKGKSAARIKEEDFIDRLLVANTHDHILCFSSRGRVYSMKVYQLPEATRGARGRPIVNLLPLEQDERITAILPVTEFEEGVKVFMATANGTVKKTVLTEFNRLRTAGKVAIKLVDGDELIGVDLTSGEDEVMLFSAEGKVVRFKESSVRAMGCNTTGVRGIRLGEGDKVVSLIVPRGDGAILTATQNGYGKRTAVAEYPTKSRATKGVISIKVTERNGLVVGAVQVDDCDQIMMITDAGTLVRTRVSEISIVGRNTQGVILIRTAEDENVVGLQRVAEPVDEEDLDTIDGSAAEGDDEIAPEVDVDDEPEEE

[15] = test system: methicillin-resistant Staphylococcus aureus (MRSA); experiment: MIC broth microdilution, MRSA; assay type: cell-based; settings: 20 hours of incubation
Method: as §3, §4, §5, §6

Staphylococcus aureus DNA gyrase, sequence (P20831 whole entry): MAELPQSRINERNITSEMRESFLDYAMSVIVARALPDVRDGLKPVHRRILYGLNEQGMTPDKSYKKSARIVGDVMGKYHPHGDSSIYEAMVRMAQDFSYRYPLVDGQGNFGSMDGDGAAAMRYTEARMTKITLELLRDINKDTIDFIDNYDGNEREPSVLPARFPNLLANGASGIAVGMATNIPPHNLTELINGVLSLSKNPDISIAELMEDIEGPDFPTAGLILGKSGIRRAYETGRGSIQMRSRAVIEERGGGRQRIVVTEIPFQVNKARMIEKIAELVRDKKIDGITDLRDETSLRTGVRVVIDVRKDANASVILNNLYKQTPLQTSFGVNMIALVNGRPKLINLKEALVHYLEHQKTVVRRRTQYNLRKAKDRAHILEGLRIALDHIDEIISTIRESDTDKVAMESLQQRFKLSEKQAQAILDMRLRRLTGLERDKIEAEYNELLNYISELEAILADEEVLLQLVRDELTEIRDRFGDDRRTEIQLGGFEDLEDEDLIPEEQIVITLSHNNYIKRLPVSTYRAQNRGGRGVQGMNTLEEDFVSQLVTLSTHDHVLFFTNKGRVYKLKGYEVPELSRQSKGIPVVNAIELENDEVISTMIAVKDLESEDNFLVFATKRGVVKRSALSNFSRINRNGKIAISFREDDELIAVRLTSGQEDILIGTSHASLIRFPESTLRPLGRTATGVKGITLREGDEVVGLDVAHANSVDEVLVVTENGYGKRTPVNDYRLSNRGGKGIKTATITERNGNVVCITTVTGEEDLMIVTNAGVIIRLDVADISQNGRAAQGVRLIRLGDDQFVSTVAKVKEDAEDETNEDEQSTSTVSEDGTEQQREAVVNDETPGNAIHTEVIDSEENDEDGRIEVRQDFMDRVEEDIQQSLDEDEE
Staphylococcus aureus DNA gyrase, sequence (P0A0K8 whole entry): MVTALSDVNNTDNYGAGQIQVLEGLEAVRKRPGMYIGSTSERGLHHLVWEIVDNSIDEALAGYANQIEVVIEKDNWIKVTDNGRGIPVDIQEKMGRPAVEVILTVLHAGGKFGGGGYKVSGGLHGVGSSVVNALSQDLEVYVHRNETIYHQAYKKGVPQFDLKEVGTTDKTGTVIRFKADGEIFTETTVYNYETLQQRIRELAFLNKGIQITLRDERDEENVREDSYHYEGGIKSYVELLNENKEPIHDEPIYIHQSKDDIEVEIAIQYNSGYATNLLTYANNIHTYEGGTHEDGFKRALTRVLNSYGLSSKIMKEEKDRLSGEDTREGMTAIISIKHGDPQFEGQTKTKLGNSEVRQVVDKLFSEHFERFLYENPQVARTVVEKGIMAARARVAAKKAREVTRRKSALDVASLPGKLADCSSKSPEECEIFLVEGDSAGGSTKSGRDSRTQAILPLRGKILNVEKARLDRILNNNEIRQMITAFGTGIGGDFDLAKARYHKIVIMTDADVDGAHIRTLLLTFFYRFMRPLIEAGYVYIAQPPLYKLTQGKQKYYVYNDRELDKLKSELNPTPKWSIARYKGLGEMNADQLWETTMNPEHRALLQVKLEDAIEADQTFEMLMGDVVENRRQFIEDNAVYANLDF

SMILES	IC50 [1] [nM]	mean percentage of metabolic activity of treated cells, HepG2 1 μM [2] [%]	mean percentage of metabolic activity of treated cells, HepG2 50 μM [2] [%]	MIC [3] [µg/mL]	mean percentage of metabolic activity of treated cells, HUVEC 1 μM [4] [%]	mean percentage of metabolic activity of treated cells, HUVEC 50 μM [4] [%]	MIC [5] [µg/mL]	MIC [6] [µg/mL]	MIC [7] [µg/mL]	MIC [8] [µg/mL]	MIC [9] [µg/mL]	MIC [10] [µg/mL]	MIC [11] [µg/mL]	MIC [12] [µg/mL]	MIC [13] [µg/mL]	IC50 [14] [nM]	MIC [15] [µg/mL]
COc1ccc2nccc(CCN3CCC(NCc4ccc(Br)cc4)CC3)c2n1 [Compound C7, N-(4-bromobenzyl)-1-(2-(6-methoxy-1,5-naphthyridin-4-yl)ethyl)piperidin-4-amine]	7	84.3 ± 8.9	−0.1 ± 0.3	1 (≈ 2.2 µM)	92.0 ± 4.5	−0.5 ± 0.2	0.062 (≈ 0.136 µM)	0.125 (≈ 0.274 µM)	≤ 0.0078	0.5 (≈ 1.1 µM)	0.031 (≈ 0.0681 µM)	128 (≈ 281 µM)	0.062 (≈ 0.136 µM)	0.062 (≈ 0.136 µM)	0.062 (≈ 0.136 µM)	–	–
COc1ccc2nccc(CCN3CCC(NCc4ccc(N(C)C)cc4)CC3)c2n1 [Compound C4, N-(4-(dimethylamino)benzyl)-1-(2-(6-methoxy-1,5-naphthyridin-4-yl)ethyl)piperidin-4-amine]	67	102.5 ± 2.3	0.8 ± 1.0	1 (≈ 2.38 µM)	105.9 ± 0.9	0.1 ± 0.6	0.25 (≈ 0.596 µM)	0.5 (≈ 1.19 µM)	0.015 (≈ 0.0358 µM)	4 (≈ 9.53 µM)	0.125 (≈ 0.298 µM)	> 128	0.25 (≈ 0.596 µM)	0.125 (≈ 0.298 µM)	0.25 (≈ 0.596 µM)	11900	0.025 (≈ 0.0596 µM)
COc1ccc2nccc(CCN3CCC(NCc4ccccc4)CC3)c2n1 [Compound C1, N-benzyl-1-(2-(6-methoxy-1,5-naphthyridin-4-yl)ethyl)piperidin-4-amine]	1020	107.1 ± 7.2	1.4 ± 0.3	16 (≈ 42.5 µM)	92.9 ± 16.6	63.4 ± 11.3	4 (≈ 10.6 µM)	16 (≈ 42.5 µM)	0.25 (≈ 0.664 µM)	32 (≈ 85 µM)	4 (≈ 10.6 µM)	> 128	4 (≈ 10.6 µM)	4 (≈ 10.6 µM)	4 (≈ 10.6 µM)	40600	–
COc1ccc2nccc(CCN3CCC(NCc4ccc(OC(F)F)c(O)c4)CC3)c2n1 [Compound C10, 2-(difluoromethoxy)-5-((1-(2-(6-methoxy-1,5-naphthyridin-4-yl)ethyl)piperidin-4-ylamino)methyl)phenol]	330	100.5 ± 4.8	−0.4 ± 1.6	4 (≈ 8.72 µM)	96.4 ± 9.1	2.5 ± 0.3	0.25 (≈ 0.545 µM)	2 (≈ 4.36 µM)	0.25 (≈ 0.545 µM)	0.016 (≈ 0.0349 µM)	0.25 (≈ 0.545 µM)	> 128	0.5 (≈ 1.09 µM)	0.25 (≈ 0.545 µM)	0.25 (≈ 0.545 µM)	4410	–
COc1ccc2nccc(CCN3CCC(NCc4ccc(F)cc4)CC3)c2n1 [Compound C5, N-(4-fluorobenzyl)-1-(2-(6-methoxy-1,5-naphthyridin-4-yl)ethyl)piperidin-4-amine]	550	98.0 ± 3.9	−1.3 ± 2.2	8 (≈ 20.3 µM)	105.2 ± 15.1	75.6 ± 12.0	2 (≈ 5.07 µM)	8 (≈ 20.3 µM)	0.125 (≈ 0.317 µM)	1 (≈ 2.53 µM)	2 (≈ 5.07 µM)	> 128	2 (≈ 5.07 µM)	2 (≈ 5.07 µM)	2 (≈ 5.07 µM)	17000	–
